Experimental data: article PMC10269926, “The LiaFSR-LiaX System Mediates Resistance of Enterococcus faecium to Peptide Antibiotics and to Aureocin A53- and Enterocin L50-Like Bacteriocins” (Microbiology Spectrum, 2023)
≈ marks a conversion by molar mass, not a printed value. Read-outs that look alike come from different tables or passages of the source. Where no end group is shown, it is not given here.

Legend:
[1] = tested on: E. faecium MUT_145 (ΔliaFSR pGh:PptcB:liaR); settings: antibiotic strips on agar, CM17 + 5 μg/mL Em, mean of three biological replicates
Description: (§1) The sensitivity of the mutants to AurA53- and EntL50-like bacteriocins, nisin, RAM, GRA, carbenicillin, and chlortetracycline was determined using microtiter plates with serial 2-fold dilutions of the antimicrobials, as described previously ([41]). The lowest concentration of the agent reducing visible bacterial growth by at least 50% was taken as the MIC (MIC50) value. The sensitivity to other antibiotics was determined using agar plates with antibiotic strips as described previously ([12]). The antibiotic concentration at the point where the inhibition zone intersected the strip was taken as the MIC value. The antibiotic susceptibilities of E. faecium LMGT 2783, MUT_130 to MUT_132, MUT_136 to MUT_139, and MUT_140 and MUT_141 were tested in ISO-BHI medium (Oxoid) supplemented with 5 μg/mL Em when appropriate, while those of E. faecium MUT_142 to MUT_149 were tested in CM17 medium supplemented with 5 μg/mL Em. To study the effects of NaCl and sodium dodecyl sulfate (SDS) on bacterial growth, saturated overnight cultures of E. faecium were used for inoculation at a dilution of 1:100 in BHI medium with serial dilutions of these compounds at concentrations of 0.5 to 10% (wt/vol) and 3.0 × 10^−2 to 2.5 × 10^−3% (wt/vol), respectively. Bacterial cultures were incubated at 37°C without shaking for 24 h in a Bioscreen turbidometric automated analyzer (Bioscreen C, Growth Curves Ltd., Finland) in Honeycomb 100-well plates (Oy Growth Curves Ab Ltd.). […] The assays were made at least in triplicate.

[2] = tested on: E. faecium MUT_148 (ΔliaFSR ΔliaX pGh:PptcB:liaS); settings: antibiotic strips on agar, CM17 + 5 μg/mL Em, mean of three biological replicates
Description: as §1

[3] = tested on: E. faecium MUT_146 (ΔliaFSR pGh:PptcB:liaSR); settings: antibiotic strips on agar, CM17 + 5 μg/mL Em, mean of three biological replicates
Description: as §1

[4] = tested on: E. faecium MUT_150 (ΔliaFSR ΔliaX pGh:PptcB:liaSR); settings: antibiotic strips on agar, CM17 + 5 μg/mL Em, mean of three biological replicates
Description: as §1

[5] = tested on: E. faecium MUT_143 (ΔliaFSR pGhost9 empty vector); settings: antibiotic strips on agar, CM17 + 5 μg/mL Em, mean of three biological replicates
Description: as §1

[6] = tested on: E. faecium MUT_144 (ΔliaFSR pGh:PptcB:liaS); settings: antibiotic strips on agar, CM17 + 5 μg/mL Em, mean of three biological replicates
Description: as §1

[7] = tested on: E. faecium MUT_147 (ΔliaFSR ΔliaX pGhost9 empty vector); settings: antibiotic strips on agar, CM17 + 5 μg/mL Em, mean of three biological replicates
Description: as §1

[8] = tested on: E. faecium MUT_149 (ΔliaFSR ΔliaX pGh:PptcB:liaR); settings: antibiotic strips on agar, CM17 + 5 μg/mL Em, mean of three biological replicates
Description: as §1

[9] = tested on: spontaneous E. faecium BHT-B-resistant mutants
Description: Spontaneous resistant mutants were obtained by growing E. faecium LMGT 2783 in the presence of the bacteriocin as described previously ([41]). […] The stability of changes in BHT-B sensitivity was determined by continuously subculturing mutants in BHI broth without bacteriocin. Subcultures were formed at 24-h intervals, and sensitivity to BHT-B was validated after 1, 5, and 10 passages with simultaneous control of culture purity.
as §1

[10] = tested on: E. faecium MUT_140 (liaFSR deletion) and MUT_141 (liaFSR plus liaX deletion); experiment: Susceptibility of deletion strains as a group (microtiter MIC50 or antibiotic strips); format: cell-based, Enterococcus faecium; settings: for Fold increase in sensitivity relative to WT: both deletion strains MUT_140 and MUT_141; for Effect of the deletions on sensitivity (in words): both deletion strains MUT_140 and MUT_141 compared with WT
Description: as §1

[11] = tested on: E. faecium LMGT 2783 (WT); experiment: microbe, parasite or virus in culture
Description: as §1

[12] = tested on: E. faecium LMGT 2783 and its spontaneous mutants; experiment: Effect of NaCl and SDS on bacterial growth (Bioscreen); format: cell-based, Enterococcus faecium; settings: WT LMGT 2783 and all mutants, BHI, 37°C, 24 h, inoculum 1:100, lowest concentration (wt/vol) with at least 50% growth inhibition, at least triplicate
Description: The sensitivity of the mutants to AurA53- and EntL50-like bacteriocins, nisin, RAM, GRA, carbenicillin, and chlortetracycline was determined using microtiter plates with serial 2-fold dilutions of the antimicrobials, as described previously ([41]). The lowest concentration of the agent reducing visible bacterial growth by at least 50% was taken as the MIC (MIC50) value. The sensitivity to other antibiotics was determined using agar plates with antibiotic strips as described previously ([12]). The antibiotic concentration at the point where the inhibition zone intersected the strip was taken as the MIC value. The antibiotic susceptibilities of E. faecium LMGT 2783, MUT_130 to MUT_132, MUT_136 to MUT_139, and MUT_140 and MUT_141 were tested in ISO-BHI medium (Oxoid) supplemented with 5 μg/mL Em when appropriate, while those of E. faecium MUT_142 to MUT_149 were tested in CM17 medium supplemented with 5 μg/mL Em. To study the effects of NaCl and sodium dodecyl sulfate (SDS) on bacterial growth, saturated overnight cultures of E. faecium were used for inoculation at a dilution of 1:100 in BHI medium with serial dilutions of these compounds at concentrations of 0.5 to 10% (wt/vol) and 3.0 × 10^−2 to 2.5 × 10^−3% (wt/vol), respectively. […]

[13] = tested on: E. faecium MUT_145 (ΔliaFSR pGh:PptcB:liaR); experiment: MIC50, microtiter plates with serial 2-fold dilutions; format: cell-based, Enterococcus faecium; settings: microtiter 2-fold dilutions, at least 50% growth reduction, CM17 + 5 μg/mL Em, mean of three biological replicates
Description: as §1

[14] = tested on: E. faecium MUT_148 (ΔliaFSR ΔliaX pGh:PptcB:liaS); experiment: as above; format: cell-based, Enterococcus faecium; settings: microtiter 2-fold dilutions, at least 50% growth reduction, CM17 + 5 μg/mL Em, mean of three biological replicates
Description: as §1

[15] = tested on: E. faecium MUT_146 (ΔliaFSR pGh:PptcB:liaSR); experiment: as above; format: cell-based, Enterococcus faecium; settings: microtiter 2-fold dilutions, at least 50% growth reduction, CM17 + 5 μg/mL Em, mean of three biological replicates
Description: as §1

[16] = tested on: E. faecium LMGT 2783 (WT); experiment: as above; format: cell-based, Enterococcus faecium; settings: lowest concentration reducing visible growth by at least 50%, ISO-BHI medium, mean of three biological replicates
Description: as §1

[17] = tested on: E. faecium MUT_150 (ΔliaFSR ΔliaX pGh:PptcB:liaSR); experiment: as above; format: cell-based, Enterococcus faecium; settings: microtiter 2-fold dilutions, at least 50% growth reduction, CM17 + 5 μg/mL Em, mean of three biological replicates
Description: as §1

[18] = tested on: E. faecium MUT_143 (ΔliaFSR pGhost9 empty vector); experiment: as above; format: cell-based, Enterococcus faecium; settings: microtiter 2-fold dilutions, at least 50% growth reduction, CM17 + 5 μg/mL Em, mean of three biological replicates
Description: as §1

[19] = tested on: E. faecium MUT_144 (ΔliaFSR pGh:PptcB:liaS); experiment: as above; format: cell-based, Enterococcus faecium; settings: microtiter 2-fold dilutions, at least 50% growth reduction, CM17 + 5 μg/mL Em, mean of three biological replicates
Description: as §1

[20] = tested on: E. faecium MUT_147 (ΔliaFSR ΔliaX pGhost9 empty vector); experiment: as above; format: cell-based, Enterococcus faecium; settings: microtiter 2-fold dilutions, at least 50% growth reduction, CM17 + 5 μg/mL Em, mean of three biological replicates
Description: as §1

[21] = tested on: E. faecium MUT_149 (ΔliaFSR ΔliaX pGh:PptcB:liaR); experiment: as above; format: cell-based, Enterococcus faecium; settings: microtiter 2-fold dilutions, at least 50% growth reduction, CM17 + 5 μg/mL Em, mean of three biological replicates
Description: as §1

[22] = LMGT 2783, WT, agar plates with antibiotic strips, point where inhibition zone intersects strip, ISO-BHI medium, mean of three biological replicates
[23] = four mutants MUT_132, MUT_136, MUT_137, MUT_138, span over the mutants

Compound | Effect of the deletions on sensitivity (in words) [10] | MIC50 [13] | MIC50 [14] | MIC50 [15] | MIC50 [16] | MIC50 [17] | MIC50 [18] | MIC50 [19] | MIC50 [20] | MIC50 [21] | also measured
CCCCCCCCCC(=O)N[C@@H](Cc1c[nH]c2ccccc12)C(=O)N[C@H](CC(N)=O)C(=O)N[C@@H](CC(=O)O)C(=O)N[C@@H]1C(=O)NCC(=O)N[C@@H](CCCN)C(=O)N[C@@H](CC(=O)O)C(=O)N[C@H](C)C(=O)N[C@@H](CC(=O)O)C(=O)NCC(=O)N[C@H](CO)C(=O)N[C@@H]([C@H](C)CC(=O)O)C(=O)N[C@@H](CC(=O)c2ccccc2N)C(=O)O[C@@H]1C [DAP, daptomycin] |  |  |  |  |  |  |  |  |  |  | MIC [1]: 6 µg/mL; MIC [2]: 0.38 µg/mL; MIC [3]: 3 µg/mL; MIC [4]: 8 µg/mL; MIC [5]: 0.38 µg/mL; MIC [6]: 0.38 µg/mL; MIC [7]: 0.38 µg/mL; MIC [8]: 12 µg/mL; DAP MIC of the BHT-B-resistant mutants ([9]; BHT-B-resistant mutants obtained, antibiotic strips): ≤ 8 µg/mL; Fold increase in sensitivity relative to WT [10]: 48 fold; MIC [11, 22]: 3 µg/mL (≈ 1.85 µM)
CNC(C)C1CCC(N)C(OC2C(N)CC(N)C(OC3OCC(C)(O)C(NC)C3O)C2O)O1 (stereo not shown) [GEN, gentamicin] | unaffected |  |  |  |  |  |  |  |  |  | Fold-lower sensitivity than that of WT E. faecium ([9]; {}): 2-8 fold; MIC ([11]; Enterococcus faecium): 4 µg/mL (≈ 8.38 µM)
NC[C@H]1O[C@H](O[C@H]2[C@H](O)[C@@H](O[C@H]3O[C@H](CO)[C@@H](O)[C@H](N)[C@H]3O)[C@H](N)C[C@@H]2N)[C@H](O)[C@@H](O)[C@@H]1O [KAN, kanamycin] | unaffected |  |  |  |  |  |  |  |  |  | MIC [1]: 64 µg/mL; MIC [2]: 32 µg/mL; MIC [3]: 64 µg/mL; MIC [4]: 128 µg/mL; MIC [5]: 32 µg/mL; MIC [6]: 32 µg/mL; MIC [7]: 32 µg/mL; MIC [8]: 128 µg/mL; MIC [11, 22]: 32 µg/mL (≈ 66 µM)
[Cl-].[Na+] [NaCl] |  |  |  |  |  |  |  |  |  |  | MIC50 [12]: 6%
bacitracin |  |  |  |  |  |  |  |  |  |  | MIC [1]: 24 µg/mL; MIC [2]: 16 µg/mL; MIC [3]: 16 µg/mL; MIC [4]: 24 µg/mL; MIC [5]: 24 µg/mL; MIC [6]: 24 µg/mL; MIC [7]: 16 µg/mL; MIC [8]: 16 µg/mL; MIC [11, 22]: 32 µg/mL
enterocin 7 [Ent7] |  | 1.6 µg/mL | 0.4 µg/mL | 1.6 µg/mL | 1.6 µg/mL | 1.6 µg/mL | 0.4 µg/mL | 0.4 µg/mL | 0.4 µg/mL | 1.6 µg/mL | 
enterocin L50 [EntL50] |  | 1.6 µg/mL | 0.4 µg/mL | 1.6 µg/mL | 1.6 µg/mL | 3.2 µg/mL | 0.4 µg/mL | 0.4 µg/mL | 0.4 µg/mL | 3.2 µg/mL | 
gramicidin | unaffected | 0.047 µg/mL | 0.006 µg/mL | 0.047 µg/mL | 0.006 µg/mL | 0.047 µg/mL | 0.006 µg/mL | 0.006 µg/mL | 0.006 µg/mL | 0.047 µg/mL | 
nisin (ITSISLCTPGCKTGALMGCNMKTATCHCSIHVSK; not fully specified (some residues, bridges); cysteine pairing not given here; also: lantibiotic; UniProt P13068 24-57, looked up) [lantibiotic bacteriocin, ≥900 IU/mg, Glentham Life Sciences] |  | 16 µg/mL | 8 µg/mL | 16 µg/mL | 125 µg/mL | 16 µg/mL | 8 µg/mL | 8 µg/mL | 8 µg/mL | 16 µg/mL | Fold-lower sensitivity than that of WT E. faecium [9, 23]: no more than 4 fold; Fold increase in sensitivity relative to WT [10]: 16 fold
ramoplanin | unaffected | 0.3 µg/mL | 0.3 µg/mL | 0.3 µg/mL | 0.4 µg/mL | 0.6 µg/mL | 0.3 µg/mL | 0.3 µg/mL | 0.3 µg/mL | 0.6 µg/mL | 
salivaricin C [SalC] |  | 50 µg/mL | 12.5 µg/mL | 50 µg/mL | 25 µg/mL | 50 µg/mL | 12.5 µg/mL | 12.5 µg/mL | 12.5 µg/mL | 50 µg/mL | Fold-lower sensitivity than that of WT E. faecium [9, 23]: no more than 4 fold
weissellicin M [WelM] | unaffected | 25 µg/mL | 6.3 µg/mL | 25 µg/mL | 6.3 µg/mL | 50 µg/mL | 6.3 µg/mL | 6.3 µg/mL | 6.3 µg/mL | 50 µg/mL | 
